Assay results taken from patent US8759481B2, “Peptide vaccines for cancers expressing tumor-associated antigens” (Oncotherapy Science, Inc., priority 2007, dated 2014).
“Also recorded” adds a separate entry of the source. Ends that are not written are not given here.

What was measured:
Type in all cases: cell-based, human
PK45P cancer cell line = assay: 51Cr release cytotoxicity assay; details: PK45P expressing both KIF20A and HLA-A24; listed as KIF20A-A24-9-305
Description: (§1) Cytotoxic activity was evaluated by a four-hour ^51Cr release assay. The target cells were pulsed with a 20 micro g/mL concentration of peptide overnight. The target cells were labeled with 100 micro Ci of Na2^51CrO4 at 37 degrees C. for one hour, and then washed three times with RPMI1640. The target cells (1×10^4/100 micro L) and 100 micro L of effector cells at various numbers with a total volume of 200 micro L were placed into a round-bottomed 96-well microtiter plate (Corning), and cultured at 37 degrees C. in a CO2 incubator for four hours. After culturing, 100 micro L of the supernatant was collected from each well, and measured the radioactivity using a gamma counter. Spontaneous release was the radioactivity from the target cells with medium in the absence of effector cells, and maximum release was the radioactivity from the target cells with 1 M HCl.
(§2) The Percentage of specific cytotoxicity was determined by calculating as following formula: % Specific lysis=[(experimental release−spontaneous release)/(maximum release−spontaneous release)]×100. Results Enhanced CDH3, EPHA4, ECT2, HIG2, INHBB, KIF20A, KNTC2, TTK and URLC10 Expression in Cancers
(§3) Furthermore, Cytotoxic activity was examined by cytotoxicity assay according to the protocols set forth in the “Materials and Methods” section above.

PK59 cancer cell line = assay: 51Cr release cytotoxicity assay; details: PK59 expressing KIF20A but not HLA-A24
Description: as §1, §2, §3

[1] = tested on: peptide-pulsed A24-LCL cells; assay: IFN-gamma ELISPOT assay (positive wells); details: HLA-A24 peptides; as compared to the control
In short: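 PBMC-derived DCs from HLA-A*2402 and/or A*0201 donors, pulsed with 20 micro g/ml peptide plus 3 micro g/ml beta 2-microglobulin, stimulated autologous CD8+ T cells three times (days 0, 7, 14). On day 21, responders were tested against peptide-pulsed A24-LCL or T2 cells by IFN-gamma ELISPOT. Values are reported as positive wells/wells tested; CTL lines confirmed by ELISA.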

[2] = tested on: COS7 transfected with full length KIF20A gene and HLA-A*2402; assay: Specific CTL activity against transfected target cells; details: CTL line or clone raised by the peptide, vs control transfectants
Description: (§4) Briefly, peptide-pulsed A24-LCL or T2 cell (1×10^4/well) was prepared as stimulator cells. Cultured Cells in 48 wells or CTL clones after limiting dilution were used as responder cells. IFN-gamma ELISPOT assay and ELISA assay were performed under manufacture procedure.
(§5) The cDNA encoding an open reading frame of target genes or HLA-A02 or HLA-A24 was amplified by PCR. The PCR-amplified product was cloned into pcDNA3.1 myc-His vector (Invitrogen). The plasmids were transfected into the target cells, HLA-A02 and HLA-A24-null normal human cell line COS7 or 293T using lipofectamine (Invitrogen) according to the manufacturer's recommended procedures. Alternatively, the plasmid contained the target genes were transfected into A24-LCL by electroporation using GenePulserII (Biorad). Briefly, 2.5×10^6 A24-LCL cells were pulsed with 10 mcg prasmid at 140V and 1000 micro F. After 2 days from transfection, the transfected cells were treated with Cell dissociation solution and used as the target cells for CTL activity assay.
The established CTL line raised against these peptides were examined for their ability to recognize the target cells expressing KIF20A and HLA-A*2402. […]

[3] = tested on: peptide-pulsed A24-LCL cells; assay: CTL line establishment, IFN-gamma ELISA; details: HLA-A24 peptides; vs target without peptide pulse
In short: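 CTL lines were expanded with MMC-inactivated B-lymphoblastoid feeders, 40 ng/ml anti-CD3 and IL-2 in AIM-V/5% AS. IFN-gamma ELISPOT identified specific wells, and ELISA determined established lines, using responders stimulated by peptide-pulsed A24-LCL or T2 cells at 1×10^4/well.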

[4] = tested on: peptide-pulsed A24-LCL cells; assay: CTL clones by limiting dilution, specific CTL activity; details: HLA-A24 peptides; vs target without peptide pulse
Description: The dilutions were made to have 0.3, 1, and 3 CTLs/well in 96 round-bottomed micro titer plate (Nalge Nunc International). CTLs were cultured with 7×10^4 cells/well of 2 kinds of human B-lymphoblastoid cell lines, 30 ng/ml of anti-CD3 antibody, and 125 U/ml of IL-2 in total of 150 micro 1/well of AIM-V containing 5% AS. 50 micro 1/well of IL-2 was added to the medium 10 days later so that IL-2 became 125 U/ml in the final concentration. CTL activity of CTLs was tested on the 14th day, and CTL clones were expanded using the same method above.
as §4

[5] = tested on: HEK293 transfected with full length KNTC2 gene and HLA-A*2402; assay: Specific CTL activity against transfected target cells; details: vs control transfectants; listed as KNTC2-A24-10-452
Description: as §4, §5
The established CTL line raised against these peptides were examined for their ability to recognize the target cells expressing KNTC2 and HLA-A*2402. […] HEK293 transfected with full length KNTC2 but not HLA-A*2402, HEK293 transfected with HLA-A*2402 but not full length KNTC2 and HEK293 transfected with HLA-A*2402 and pulsed with KNTC2-9-309 were prepared as controls.

peptide-pulsed T2 cells [6] = assay: CTL line establishment, IFN-gamma ELISA; details: HLA-A02 peptides; vs target without peptide pulse
In short: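 CTLs expanded with MMC-inactivated B-lymphoblastoid lines, 40 ng/ml anti-CD3 and IL-2 (120 IU/ml day 1, then 30 IU/ml on days 5, 8, 11). Peptide-pulsed T2 or A24-LCL stimulators (1×10^4/well) incubated with cultured wells or limiting-dilution clones as responders; IFN-gamma detected by ELISPOT (positive wells) and ELISA (established CTL lines).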

peptide-pulsed T2 cells [7] = assay: IFN-gamma ELISPOT assay (positive wells); details: HLA-A02 peptides; as compared to the control
In short: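 CD8+ T cells from HLA-A*2402 and/or HLA-A*0201 donors were stimulated 1:20 with autologous monocyte-derived DCs pulsed with 20 µg/ml peptide plus β2-microglobulin, in IL-7, with IL-2 added, restimulated on days 7 and 14. On day 21, IFN-γ ELISPOT against peptide-pulsed T2 or A24-LCL cells (1×10^4/well) scored wells as positive, with CTL lines confirmed by ELISA.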

[8] = tested on: COS7, Hek293 and 293T transfected with full length URLC10 gene and HLA-A*0201; assay: Specific CTL activity against transfected target cells; details: vs control transfectants; listed as URLC10-A02-10-211
Description: as §4, §5
The established CTL line raised against these peptides were examined for their ability to recognize the target cells endogenously expressing URLC10 and HLA-A*0201. […]

[9] = tested on: MIAPaca2 cancer cell line; assay: 51Cr release cytotoxicity assay; details: Miapaca2 expressing both KIF20A and HLA-A24; listed as KIF20A-A24-10-304
Description: as §1, §2
Furthermore, Cytotoxic activity was performed by cytotoxicity assay according to the protocols set forth in the “Materials and Methods” section above. […]

[10] = tested on: COS7 transfected with full length HIG2 gene and HLA-A*0201; assay: Specific CTL activity against transfected target cells; details: CTL line raised by the peptide; vs control transfectants; listed as HIG2-A02-9-15
Description: as §4, §5
(§6) The established CTL line raised against these peptides were examined for their ability to recognize the target cells expressing HIG2 and HLA-A*0201. […] 293T or COS7 transfected with full length ECT2 but not HLA-A*0201 and 293T or COS7 transfected with HLA-A*0201 but not full length ECT2 (or replaced other gene e.g. FoxP3 or TTK) were prepared as controls.

TE5 cancer cell line = assay: 51Cr release cytotoxicity assay; details: TE5 expressing only ECT2
Description: as §1, §2, §3

TE6 cancer cell line = assay: 51Cr release cytotoxicity assay; details: TE6 endogenously expressing ECT2 and HLA-A24; listed as ECT2-A24-9-515
Description: as §1, §2, §3

A498 cancer cell line = assay: 51Cr release cytotoxicity assay; details: A498 expressing only HIG2
Description: as §1, §2, §3

Caki-1 cancer cell line = assay: 51Cr release cytotoxicity assay; details: Caki-1 endogenously expressing HIG2 and HLA-A02; listed as HIG2-A02-9-4
Description: as §1, §2, §3

[11] = tested on: 293T transfected with HIG2 gene and/or HLA-A02; assay: 51Cr release cytotoxicity assay
Excerpt: as §5
Cytotoxic activity was evaluated by a four-hour ^51Cr release assay. […] After culturing, 100 micro L of the supernatant was collected from each well, and measured the radioactivity using a gamma counter. Spontaneous release was the radioactivity from the target cells with medium in the absence of effector cells, and maximum release was the radioactivity from the target cells with 1 M HCl.
The Percentage of specific cytotoxicity was determined by calculating as following formula: % Specific lysis=[(experimental release−spontaneous release)/(maximum release−spontaneous release)]×100. […]

[12] = tested on: 293T transfected with full length HIG2 gene and HLA-A*0201; assay: Specific CTL activity against transfected target cells; details: CTL line raised by the peptide; vs control transfectants; listed as HIG2-A02-9-8
Description: as §4, §5, §6

## FFEIYNELL [SEQ ID NO: 174]
PK45P cancer cell line
  Cytotoxic activity against PK45P (Cr-release assay): remarkably high cytotoxic effect; also recorded: very potent cytotoxic activity
PK59 cancer cell line
  Cytotoxic activity against PK59 (Cr-release assay): did not show significant specific cytotoxic activity

## SEQ ID NO: 178: HLA-A*2402 binding 9-mer peptide derived from KIF20A (IFSIRILHL)
[1]
  IFN-gamma production by IFN-gamma ELISPOT assay: potent IFN-gamma production
[2]; listed as KIF20A-A24-9-383
  Specific CTL activity against COS7 transfected with both KIF20A and HLA-A24: highest specific CTL activity; also recorded: high specific CTL activity
[3]
  Establishment of CTL line, specific CTL activity against the peptide-pulsed target determined by ELISA: CTL lines were established

## SEQ ID NO: 194: HLA-A*2402 binding 10-mer peptide derived from KIF20A (KVYLRVRPLL)
[4]
  CTL activities of CTL clones against the peptide-pulsed target: potent and specific CTL activities
[1]
  IFN-gamma production by IFN-gamma ELISPOT assay: potent IFN-gamma production
[2]; listed as KIF20A-A24-10-66
  Specific CTL activity against COS7 transfected with both KIF20A and HLA-A24: highest specific CTL activity
[3]
  Establishment of CTL line, specific CTL activity against the peptide-pulsed target determined by ELISA: CTL lines were established

## SEQ ID NO: 214: HLA-A*2402 binding 10-mer peptide derived from KNTC2 (KYRAQVYVPL)
[4]
  CTL activities of CTL clones against the peptide-pulsed target: potent and specific CTL activities
[1]
  IFN-gamma production by IFN-gamma ELISPOT assay: potent IFN-gamma production
[3]
  Establishment of CTL line, specific CTL activity against the peptide-pulsed target determined by ELISA: CTL lines were established
[5]
  Specific CTL activity against HEK293 transfected with both KNTC2 and HLA-A24: highest specific CTL activity

## SEQ ID NO: 288: HLA-A*0201 binding 10-mer peptide derived from URLC10 (LLLASIAAGL)
peptide-pulsed T2 cells [6]
  Establishment of CTL line, specific CTL activity against the peptide-pulsed target determined by ELISA: CTL line and clones, were established
peptide-pulsed T2 cells [7]
  IFN-gamma production by IFN-gamma ELISPOT assay: potent IFN-gamma production
[8]
  Specific CTL activity against COS7, Hek293 and 293T transfected with both URLC10 and HLA-A02: highest specific CTL activity; also recorded: high specific CTL activity

## SFFEIYNELL [SEQ ID NO: 186]
[9]
  Cytotoxic activity against MIAPaca2 (Cr-release assay): remarkably high cytotoxic effect; also recorded: very potent specific cytotoxic activity
PK59 cancer cell line
  Cytotoxic activity against PK59 (Cr-release assay): did not show significant specific cytotoxic activity

## TLLSIFVRV [SEQ ID NO: 116]
peptide-pulsed T2 cells [6]
  Establishment of CTL line, specific CTL activity against the peptide-pulsed target determined by ELISA: CTL lines were established
[10]
  Specific CTL activity against COS7 transfected with both HIG2 and HLA-A02: highest specific CTL activity; also recorded: high specific CTL activity
peptide-pulsed T2 cells [7]
  IFN-gamma production by IFN-gamma ELISPOT assay: potent IFN-gamma production

## TYPPFVNFF [SEQ ID NO: 80, TYPPFVNFF]
TE5 cancer cell line
  Cytotoxic activity against TE5 (Cr-release assay): did not demonstrate the cytotoxic activity
TE6 cancer cell line
  Cytotoxic activity against TE6 (Cr-release assay): remarkably high cytotoxic effect; also recorded: very potent cytotoxic activity

## VLNLYLLGV [SEQ ID NO: 117, VLNLYLLGV]
A498 cancer cell line
  Cytotoxic activity against A498 (Cr-release assay): did not demonstrate the cytotoxic activity
Caki-1 cancer cell line
  Cytotoxic activity against Caki-1 (Cr-release assay): remarkably high cytotoxic effect; also recorded: very potent cytotoxic activity
[11]
  Cytotoxic activity against 293T transfected with both HIG2 gene and HLA-A02 (Cr-release assay): very potent cytotoxic activity
[11]; control transfectants
  Cytotoxic activity against 293T transfected only HIG2 or only HLA-A02 (Cr-release assay): did not demonstrate the cytotoxic activity

## YLLGVVLTL [SEQ ID NO: 114]
peptide-pulsed T2 cells [6]
  Establishment of CTL line, specific CTL activity against the peptide-pulsed target determined by ELISA: CTL lines were established
[12]
  Specific CTL activity against 293T transfected with both HIG2 and HLA-A02: highest specific CTL activity; also recorded: high specific CTL activity
peptide-pulsed T2 cells [7]
  IFN-gamma production by IFN-gamma ELISPOT assay: potent IFN-gamma production
